What was measured:
hERG-receptor = hERG-receptor (Homo sapiens (Human), UniProt Q12809); assay: HERGBD: inhibition of specific 3H-Dofetilide binding to the hERG-receptor; conditions: HEK cell membranes with human ERG, Hill-plot 2-parameter-model
Procedure: Inhibition of Specific Binding to the hERG-Receptor (HERGBD)
A HEK cell line with stable transfected human ERG receptor was used for the assay. The cells were grown adherently and maintained in DULBECCOS' MEM medium with 10% FBS, 1% non-essential amino acids, 1% Penicillin/Streptomycin and 400 μg/ml G418 (Calbiochem).
For binding assays and membrane preparations the cell culture medium was removed, cells were washed with PBS. Crude membranes for radioligand binding experiments were prepared by scraping the cells off the dishes in ice cold 20 mM HEPES/0.1 mM KCl/pH 7.2. The cell suspension was homogenized on ice (Ultra turrax, 3×20 sec.) and the homogenate was spun for 10 min (1° C., 1000 g, OPTIMA, SW28, 2800 U/min). The supernatant was than centrifuged for 40 min at 100000 g (1° C., OPTIMA, SW28, 23000 U/min). The membrane pellet was resuspended in 20 mM HEPES/0.1 mM KCl/pH 7.2, frozen and stored at −80° C.
After thawing on the day of the assay, the membrane suspension was diluted further with 20 mM HEPES/0.1 mM KCl/pH 7.2.
The incubation mixture of 200 μl contained 1.5 nmol/l 3H-Dofetilide, optimized amount of membrane preparation, 20 mM HEPES/0.1 mM KCl/(pH 7.2) and inhibitor in 1% DMSO. Nonspecific binding was estimated in the presence of […] Dofetilide. The samples were incubated for 90 min. at RT.
Binding was terminated by filtration of the incubated membrane preparations using Filtermat B (Pharmacia, Uppsala Sweden) and a Micro Cell Harvester (Skatron, Lier, Norway). The Filtermat B had been presoaked with 1% polyethylenimine and carefully washed with 0.05 M Tris/HCl-buffer pH=7.7 after the filtration to separate free and bound radioactivity. The filters were counted in a scintillation counter (Betaplate 1205, Berthold, Wildbad, Germany) in order to determine the specific binding of [^3H]-Dofetilide.
The optimal amount of membrane preparation in the assay was determined and optimized for each membrane preparation separately in front of using the membranes in compound testing.
For pipetting of the incubation mixture we routinely use the robot Biomek2000 (Fa. Beckman).

rat NR1/NR2B receptor [1] = molecular target: T1, rat NR1/NR2B receptor (Rattus norvegicus (Rat), UniProt P35439+Q00960); assay: NR2B binding assay: inhibition of specific [3H]-Ifenprodil binding to the rat NR1/NR2B receptor; conditions: rat brain membranes, Hill-plot 2-parameter-model
T1 sequence (Q00960 27-1482, other chains not shown): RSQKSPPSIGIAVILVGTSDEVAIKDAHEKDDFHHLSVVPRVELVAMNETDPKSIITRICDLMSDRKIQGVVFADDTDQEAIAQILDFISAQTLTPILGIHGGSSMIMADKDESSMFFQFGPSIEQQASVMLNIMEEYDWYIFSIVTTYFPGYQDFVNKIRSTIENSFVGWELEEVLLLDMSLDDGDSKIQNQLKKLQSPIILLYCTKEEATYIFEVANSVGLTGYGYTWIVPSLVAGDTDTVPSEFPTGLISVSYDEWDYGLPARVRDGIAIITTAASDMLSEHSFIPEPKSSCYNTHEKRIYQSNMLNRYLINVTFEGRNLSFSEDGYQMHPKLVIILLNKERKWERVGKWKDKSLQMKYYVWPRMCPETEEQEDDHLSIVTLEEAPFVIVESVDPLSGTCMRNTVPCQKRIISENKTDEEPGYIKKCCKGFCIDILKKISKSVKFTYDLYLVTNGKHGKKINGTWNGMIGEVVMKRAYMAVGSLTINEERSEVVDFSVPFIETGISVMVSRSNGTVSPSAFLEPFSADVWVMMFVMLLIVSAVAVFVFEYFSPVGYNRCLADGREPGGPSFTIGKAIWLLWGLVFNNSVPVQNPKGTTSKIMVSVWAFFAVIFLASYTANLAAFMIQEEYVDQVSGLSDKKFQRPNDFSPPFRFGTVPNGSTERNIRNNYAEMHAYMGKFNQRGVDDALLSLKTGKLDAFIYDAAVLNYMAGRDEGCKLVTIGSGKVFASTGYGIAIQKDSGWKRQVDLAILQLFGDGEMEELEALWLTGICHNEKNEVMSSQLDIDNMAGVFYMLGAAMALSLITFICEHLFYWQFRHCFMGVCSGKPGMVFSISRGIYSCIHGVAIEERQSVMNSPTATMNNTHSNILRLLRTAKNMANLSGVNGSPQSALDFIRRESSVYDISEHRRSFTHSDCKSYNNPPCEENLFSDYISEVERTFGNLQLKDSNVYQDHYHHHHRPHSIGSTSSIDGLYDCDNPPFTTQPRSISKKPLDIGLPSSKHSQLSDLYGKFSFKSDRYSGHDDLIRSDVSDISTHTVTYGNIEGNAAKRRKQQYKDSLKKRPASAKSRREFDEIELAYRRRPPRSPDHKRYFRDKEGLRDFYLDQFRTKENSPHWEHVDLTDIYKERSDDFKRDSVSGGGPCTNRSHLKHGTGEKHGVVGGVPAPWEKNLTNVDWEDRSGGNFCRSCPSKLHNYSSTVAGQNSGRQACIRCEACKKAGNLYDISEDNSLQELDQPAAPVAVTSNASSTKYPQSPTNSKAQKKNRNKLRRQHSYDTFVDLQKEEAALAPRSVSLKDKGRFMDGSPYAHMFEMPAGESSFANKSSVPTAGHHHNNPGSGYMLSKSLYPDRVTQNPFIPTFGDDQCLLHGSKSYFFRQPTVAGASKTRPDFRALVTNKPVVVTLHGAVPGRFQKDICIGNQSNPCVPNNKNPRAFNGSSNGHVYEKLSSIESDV
Procedure: Inhibition of Specific Binding to the Rat NR1/NR2B Receptor
(§1) Male Wistar rats (180 to 200 g) were killed by suffocation in a CO2 chamber for two minutes. Whole brains without cerebellum were removed and dissected on ice, placed into closed vials and stored at −70° C.
Membrane fractions were prepared and tested using standard techniques. At the time of the assay, 1 g of the brains was placed into 25 ml of 50 mM Tris/10 mM EDTA buffer, pH 7.1, (25 vol. per g of original tissue) and homogenized for 30 sec at 20000 rpm with an Ultraturrax T25 (Jahnke & Kunkel, IKA-Labortechnik, Staufen, Germany). The homogenate was centrifuged at 4° C. for 10 min at 48000 g (OPTIMA L-70, Beckman, Palo Alto, Calif. 94304, USA).
The supernatant was discarded and the pellet was homogenized on ice for 30 sec at 20000 rpm with an Ultraturrax and again centrifuged at 48000 g for 30 minutes at 4° C. The resulted pellet was resuspended in 25 ml of 50 mM Tris/10 mM EDTA buffer, homogenized for 30 sec with an Ultraturrax, aliquoted, frozen at −70° C. and stored until use.
(§2) After thawing on the day of the assay, a 5 ml membrane aliquot was centrifuged at 48000 g for 30 min at 4° C. The pellet was resuspended in 5 ml of 5 mM Tris/1 mM EDTA buffer, pH 7.4, homogenized for 30 sec at 20000 rpm with an Ultraturrax and centrifuged at 48000 g for 30 min at 4° C. This was repeated twice. The final pellet was homogenized in 5 ml of 5 mM Tris/l mM EDTA buffer at 4° C. with an Ultraturrax and used for the Ifenprodil-binding assay as described in the following.
Nonspecific binding was estimated in the presence of […] CP101.606. The samples were incubated for 60 min. at 4° C.
The incubation was terminated by filtration of the membrane preparations using Filtermat B (Pharmacia, Uppsala Sweden) and a Micro Cell Harvester (Skatron, Lier, Norway). The Filtermat B had been presoaked with 1% polyethylene imine and carefully washed with 50 mM Tris/HCl-buffer pH 7.7 after the filtration to separate free and bound radioactivity.
The optimal amount of membrane preparation in the assay had been determined and optimized for each membrane preparation separately before the test.
For pipetting of the incubation mixture we routinely used the robot Biomek2000 (Fa. Beckman).
For determination of IC50 values the Hill-plot, 2-parameter-model was used.

rat NR1/NR2B receptor [2] = molecular target: T1, rat NR1/NR2B receptor; assay: RRNR2BB: inhibition of specific binding to the rat NR1/NR2B receptor; conditions: [3H]-Ifenprodil binding, rat brain membranes, Hill-plot 2-parameter-model
Procedure: RRNR2BB—Inhibition of Specific Binding to the Rat NR1/NR2B Receptor
as §1
Membrane fractions were prepared and tested using standard techniques. At the time of the assay, 1 g of the brains were placed into 25 ml of 50 mM Tris/10 mM EDTA buffer, pH=7.1, (25 vol. per g of original tissue) and was homogenized for 30 sec at 20000 U/min with an Ultraturrax T25 (Jahnke & Kunkel, IKA-Labortechnik, Staufen, Germany). The homogenate was centrifuged at 4° C. for 10 min at 48000 g (OPTIMA L-70, Beckman, Palo Alto, Calif. 94304, USA). The supernatant was discarded and the pellet was homogenized on ice for 30 sec at 20000 U/min with an Ultraturrax and again centrifuged at 48000 g for 30 minutes at 4° C. The resultant pellet was resuspended in 25 ml of 50 mM Tris/10 mM EDTA buffer, homogenized for 30 sec with an Ultraturrax, aliquoted, frozen at −70° C. and stored until use
as §2, with “aliquote” for “aliquot”, “pH=7.4,” for “pH 7.4,”, “U/min” for “rpm”, “This step” for “This”, “Tris/mM” for “Tris/l mM”, “assay.” for “assay as described in the following.”
Nonspecific binding was estimated in the presence of 10 M CP101.606. The samples were incubated for 60 min. at 4° C.
Binding was terminated by filtration of the incubated membrane preparations using Filtermat B (Pharmacia, Uppsala Sweden) and a Micro Cell Harvester (Skatron, Lier, Norway). The Filtermat B had been presoaked with 1% polyethylenimine and carefully washed with […] Tris/HCl-buffer pH=7.7 after the filtration to separate free and bound radioactivity.
For pipetting of the incubation mixture the robot Biomek2000 (Fa. Beckman) was used.
The IC50 values in the tables below were determined using the Hill-plot, 2-parameter-model.

Chain of hERG-receptor (Q12809 whole entry): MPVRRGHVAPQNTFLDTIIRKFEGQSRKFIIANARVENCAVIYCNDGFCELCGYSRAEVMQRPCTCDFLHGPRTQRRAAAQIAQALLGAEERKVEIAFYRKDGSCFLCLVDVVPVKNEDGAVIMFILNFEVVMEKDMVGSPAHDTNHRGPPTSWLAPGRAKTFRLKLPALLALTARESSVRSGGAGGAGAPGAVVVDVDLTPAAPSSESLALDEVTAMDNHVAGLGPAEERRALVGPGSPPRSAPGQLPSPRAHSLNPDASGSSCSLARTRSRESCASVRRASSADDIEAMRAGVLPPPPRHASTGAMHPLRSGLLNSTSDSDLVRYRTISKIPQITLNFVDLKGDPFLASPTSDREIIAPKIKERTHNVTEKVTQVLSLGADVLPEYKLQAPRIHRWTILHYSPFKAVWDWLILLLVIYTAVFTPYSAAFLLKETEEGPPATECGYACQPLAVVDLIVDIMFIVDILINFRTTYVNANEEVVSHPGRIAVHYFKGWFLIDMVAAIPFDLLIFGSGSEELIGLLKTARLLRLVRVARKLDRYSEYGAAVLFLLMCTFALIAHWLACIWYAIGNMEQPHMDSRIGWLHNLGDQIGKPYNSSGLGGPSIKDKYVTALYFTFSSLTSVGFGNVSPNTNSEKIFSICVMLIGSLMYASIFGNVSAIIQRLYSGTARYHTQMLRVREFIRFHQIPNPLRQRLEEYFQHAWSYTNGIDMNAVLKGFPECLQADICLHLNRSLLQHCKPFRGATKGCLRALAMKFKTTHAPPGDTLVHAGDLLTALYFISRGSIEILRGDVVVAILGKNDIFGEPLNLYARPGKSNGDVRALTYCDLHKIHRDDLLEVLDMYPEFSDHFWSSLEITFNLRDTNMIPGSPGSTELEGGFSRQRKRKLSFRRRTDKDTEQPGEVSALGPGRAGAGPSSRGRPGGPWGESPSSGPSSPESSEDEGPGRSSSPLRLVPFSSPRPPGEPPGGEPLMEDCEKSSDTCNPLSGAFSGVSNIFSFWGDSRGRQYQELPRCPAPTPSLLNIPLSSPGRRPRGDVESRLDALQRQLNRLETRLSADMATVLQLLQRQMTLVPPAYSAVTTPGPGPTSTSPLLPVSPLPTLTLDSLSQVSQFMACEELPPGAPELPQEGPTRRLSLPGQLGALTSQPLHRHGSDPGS

Row | SMILES | IC50 (hERG-receptor) [nM] | IC50 (rat NR1/NR2B receptor [1]) [nM] | IC50 (rat NR1/NR2B receptor [2]) [nM]
1 | Clc1ccc(-n2cc(Cn3ncnc3C3CCCC3)nn2)cc1 [Example 14, 1-(4-Chloro-phenyl)-4-(5-cyclopentyl-[1,2,4]triazol-1-ylmethyl)-1H-[1,2,3]triazole] | 30500 | 12500 | 12500
2 | Cc1cc(-n2cc(Cn3ccnc3C(C)C)nn2)ccc1Cl [Example 71, 1-(4-Chloro-3-methyl-phenyl)-4-(2-isopropyl-imidazol-1-ylmethyl)-1H-[1,2,3]triazole] | 10000 | 4.47 | 4.47
3 | Cc1nccn1Cc1cn(-c2ccc(Cl)cc2Cl)nn1 [Example 49, 1-(2,4-Dichloro-phenyl)-4-(2-methyl-imidazol-1-ylmethyl)-1H-[1,2,3]triazole] | 4530 | 778 | 778
4 | CCc1nccn1Cc1cn(-c2ccc(F)c(C(F)F)c2)nn1 [Example 83, 1-(3-Difluoromethyl-4-fluoro-phenyl)-4-(2-ethyl-imidazol-1-ylmethyl)-1H-[1,2,3]triazole] | 16700 | 4.11 | 4.11
5 | Fc1ccc(-n2cc(Cn3ccnc3C3CC3)nn2)cc1Cl [Example 44] | 3570 | 28.3 | 28.3
6 | CCCc1nccn1Cc1cn(-c2ccc(Cl)cc2)nn1 [Example 18, 1-(4-Chloro-phenyl)-4-(2-propyl-imidazol-1-ylmethyl)-1H-[1,2,3]triazole] | 2230 | 46.6 | 46.6
7 | Cc1nccn1Cc1cn(-c2cccc(C3CC3)c2)nn1 [Example 76, 1-(3-Cyclopropyl-phenyl)-4-(2-methyl-imidazol-1-ylmethyl)-1H-[1,2,3]triazole] | 10300 | 15.9 | 15.9
8 | Cc1ccc(-n2cc(Cn3ccnc3C)nn2)cc1F [Example 53, 1-(3-Fluoro-4-methyl-phenyl)-4-(2-methyl-imidazol-1-ylmethyl)-1H-[1,2,3]triazole] | 6410 | 26.5 | 26.5
9 | Cc1ccc(-n2cc(Cn3ccnc3C3CC3)nn2)cc1F [Example 63, 4-(2-Cyclopropyl-imidazol-1-ylmethyl)-1-(3-fluoro-4-methyl-phenyl)-1H-[1,2,3]triazole] | 11200 | 87.1 | 87.1
10 | Cc1nccn1Cc1cn(-c2ccc(Cl)c(F)c2)nn1 [Example 50, 1-(4-Chloro-3-fluoro-phenyl)-4-(2-methyl-imidazol-1-ylmethyl)-1H-[1,2,3]triazole] | 3390 | 21.2 | 21.2
11 | CC(F)(F)c1cc(-n2cc(Cn3ccnc3CCO)nn2)ccc1F [Example 106, 1-[3-(1,1-Difluoro-ethyl)-4-fluoro-phenyl]-4-[2-(2-hydroxy-ethyl)-imidazol-1-ylmethyl]-1H-[1,2,3]triazole] | – | 8.08 | 8.08
12 | Cc1ncnn1Cc1cn(-c2ccc(Cl)cc2)nn1 [Example 8, 1-(4-Chloro-phenyl)-4-(5-methyl-[1,2,4]triazol-1-ylmethyl)-1H-[1,2,3]triazole] | 48900 | 14300 | 14300
13 | Cc1nccn1Cc1cn(-c2ccc(Cl)cc2)nn1 [Example 24, 1-(4-Chloro-phenyl)-4-(2-methyl-imidazol-1-ylmethyl)-1H-[1,2,3]triazole] | 5640 | 38.4 | 38.4
14 | CC(C)(C)c1nccn1Cc1cn(-c2ccc(F)c(C(F)F)c2)nn1 [Example 87, 1-(3-Difluoromethyl-4-fluoro-phenyl)-4-(2-tert.butyl-imidazol-1-ylmethyl)-1H-[1,2,3]triazole] | 7520 | 131 | 131
15 | Cc1nccn1Cc1cn(-c2cc(F)cc(C(F)F)c2)nn1 [Example 102] | 16800 | 25.9 | 25.9
16 | CCc1nccn1Cc1cn(-c2ccc(Cl)c(C(F)F)c2)nn1 [Example 91, 1-(4-Chloro-3-difluoromethyl-phenyl)-4-(2-ethyl-imidazol-1-ylmethyl)-1H-[1,2,3]triazole] | 7190 | 2.43 | 2.43
17 | Cc1nccn1Cc1cn(-c2cccc(C(F)(F)F)c2)nn1 [Example 58, 4-(2-Methyl-imidazol-1-ylmethyl)-1-(3-trifluoromethyl-phenyl)-1H-[1,2,3]triazole] | 15000 | 17.4 | 17.4
18 | FCCc1nccn1Cc1cn(-c2ccc(Cl)c(Cl)c2)nn1 [Example 41, 1-(3,4-Dichloro-phenyl)-4-[2-(2-fluoro-ethyl)-imidazol-1-ylmethyl]-1H-[1,2,3]triazole] | 13700 | 26.2 | 26.2
19 | CCCc1ncnn1Cc1cn(-c2ccc(Cl)cc2)nn1 [Example 2, 1-(4-Chloro-phenyl)-4-(5-propyl-[1,2,4]triazol-1-ylmethyl)-1H-[1,2,3]triazole] | 32 | – | > 1000
20 | CCc1ncnn1Cc1cn(-c2ccc(Cl)cc2)nn1 [Example 5, 1-(4-Chloro-phenyl)-4-(5-ethyl-[1,2,4]triazol-1-ylmethyl)-1H-[1,2,3]triazole] | 194000 | – | > 10000
21 | CCc1ncn(Cc2cn(-c3ccc(Cl)cc3)nn2)n1 [Example 6, 1-(4-Chloro-phenyl)-4-(3-ethyl-[1,2,4]triazol-1-ylmethyl)-1H-[1,2,3]triazole] | 54900 | – | > 10000
